Where a name gives a salt, the structure may show the parent alone. Read-outs that look alike come from different tables or passages of the source.
Tests used:
[1] = test system: alpha-adrenergic receivers of the dilatating pupil muscle; assay: effect on the function of the pupil (mydriatic effect, Polewka's method); assay type: in vivo; conditions: 5 mg/kg intravenously, mouse
Description: The phenomenon of mydriasis induced by ergot alkaloids results from the stimulation of alpha-adrenergic receivers of the dilatating pupil muscle (Z. Votava et al., Arch. int. Pharmacodin. 45, 1958, 114).
The mydriatic effect of dextrorotatory ergot alkaloids administered intravenously was determined with a monocular measuring magnifying glass by Polewka's method (A. R. Turner, Screening Methods in Pharmacology, 1965, p. 174 ff.).
The size of the pupil was measured at first before the administration of the substance and then 15, 30 and 60 minutes after intravenous administration of alkaloids into the mouse tail (dose 5 mg/kg of body weight).

[2] = test system: isolated heart of a guinea pig; assay: effect on isolated heart of a guinea pig, modified Langendorff's method
Description: The effect of dextrorotatory ergot alkaloids according to the invention on heart in vitro was examined on isolated heart of a guinea pig by the modified Langendorff's method (Zalar et al., Poll. Chim. Farmac. 114, 1975, 146). Alkaloids were infused by an apparatus for slow infusion (B. Melsungen).

[3] = test system: spontaneously hypertensive rats; assay: effect on arterial pressure of spontaneously hypertensive rats; assay type: in vivo, rats (variety Okamoto Aoki F32)
Description: For the experiment groups of 10 spontaneously hypertensive rats (variety Okamoto Aoki F32) of both sexes, weighing from 200 to 250 g, were used. The acid addition salts of said dextrorotatory ergot alkaloids were administered intraperitoneally in doses of 50 mcg/kg of body weight and systolic blood pressure was measured on the rats' tails by means of plethysmographic method (K. Okamoto and K. Aoki, Jap. Circulat. J. 27, 1963, 282).

[4] = acute toxicity (LD50), intraperitoneal administration; conditions: mouse, in vivo, ip, male mice, 24 hours after administration
Description: The volume of injected solution was 0.01 ml/g of body weight. In the following Table I acute toxicity of dextrorotatory ergot alkaloids in comparison with levorotatory ergot alkaloids 24 hours after the intraperitoneal administration is given.

[5] = test system: arrhythmias induced by adrenalin; assay: effect on arrhythmia induced by adrenalin; assay type: in vivo; conditions: 2.0 mg/kg intraperitoneally, guinea pigs, adrenalin 0.02 mg/kg intravenously
Description: For experiments, guinea pigs of both sexes, weighing from 400 to 550 g, were used. The narcotized animals (urethane 1.6 g/kg of body weight, intraperitoneally) were at first intravenously administered adrenalin (0.02 mg/kg) and then dextrorotatory ergot alkaloids. 1 hour and 1.5 hours after the administration of dextrorotatory ergot alkaloids, adrenalin was again administered intravenously (0.02 mg/kg) and the presence as well as duration of arrhythmias was ascertained.

[6] = test system: smooth muscles of blood vessels; assay: effect on blood pressure drop in rats with cut spinal cord; assay type: in vivo, rats (variety Wistar); conditions: for duration of long-duration hypertension: acid addition salts, 1.5 mg/kg of body weight; for vasoconstrictory effect: contraction of smooth muscles of blood vessels
Description: Rats (variety Wistar) in urethane narcosis were cut their spinal cord in the region of the second cervical vertebra and connected to an artificial breathing apparatus (B. Melsungen). By this intervention the central regulation of blood pressure was eliminated. In so treated animals blood pressure dropped for about 50 mm Hg. The experiment was supposed to show whether the examined substances directly affected the smooth muscles of blood vessels.

[7] = control, spontaneously hypertensive rats
[8] = day 2, 50 mcg/kg intraperitoneally
[9] = day 4, 50 mcg/kg intraperitoneally
[10] = day 6, 50 mcg/kg intraperitoneally
[11] = day 8, 50 mcg/kg intraperitoneally
[12] = day 10, 50 mcg/kg intraperitoneally

With `CC(C)[C@H]1C(=O)N2CCC[C@H]2[C@]2(O)O[C@](NC(=O)[C@H]3C=C4c5cccc6[nH]cc(c56)C[C@H]4N(C)C3)(C(C)C)C(=O)N12` [ergocorninine methanesulfonate, Ergocorninine methanesulfonate] the “The increase of pupil widening in comparison with the control” value (from here on “The increase of pupil widening”) ([1]; after 15 min.) was 52.7%, the “The increase of pupil widening” value ([1]; after 30 min.) was 36.1% and the “The increase of pupil widening” value ([1]; after 60 min.) was 19.4%. It also gave an inhibition at 4.9 µg/g ([2]; Cavia porcellus, dose 4.90 mcg/g of heart, read-out: (-)chronotropic (maximum)) of 11%, a Systolic blood pressure [3, 7] of 190 mm Hg and a Systolic blood pressure [3, 8] of 182 mm Hg. For the same compound, the Systolic blood pressure [3, 9] was 176 mm Hg, the Systolic blood pressure [3, 10] was 166 mm Hg and the Systolic blood pressure [3, 11] was 160 mm Hg. The Systolic blood pressure [3, 12] was 161 mm Hg, the LD50 at 24 h [4] was > 520 mg/kg and the “Shortening of arrhythmia duration” value [5] was 46 % of control.
With `CC(C)[C@H]1C(=O)N2CCC[C@H]2[C@]2(O)O[C@](NC(=O)[C@H]3C=C4c5cccc6[nH]cc(c56)C[C@H]4N(C)C3)(C(C)C)C(=O)N12` [ergocorninine] the “duration of long-duration hypertension” value [6] was “more than 60 minutes” and the vasoconstrictory effect [6] was “vasoconstrictory effect”.
Work on `CC(C)[C@@]1(NC(=O)[C@@H]2C=C3c4cccc5[nH]cc(c45)C[C@H]3N(C)C2)O[C@@]2(O)[C@@H]3CCCN3C(=O)[C@H](Cc3ccccc3)N2C1=O` [ergocristine methanesulfonate, reference compound] yielded an LD50 at 24 h [4] of 234 mg/kg.
For `CC(C)[C@@]1(NC(=O)[C@H]2C=C3c4cccc5[nH]cc(c45)C[C@H]3N(C)C2)O[C@@]2(O)[C@@H]3CCCN3C(=O)[C@H](Cc3ccccc3)N2C1=O` [ergocristinine methanesulfonate, Ergocristinine methanesulfonate], the “The increase of pupil widening” value ([1]; after 15 min.) was 48.7%, the “The increase of pupil widening” value ([1]; after 30 min.) was 10.3% and the “The increase of pupil widening” value ([1]; after 60 min.) was 2.5%. The activation at 4.98 µg/g ([2]; Cavia porcellus, dose 4.98 mcg/g of heart, read-out: (+)inotropic (maximum)) was 9%, the inhibition at 4.98 µg/g ([2]; Cavia porcellus, dose 4.98 mcg/g of heart, read-out: (-)chronotropic (maximum)) was 12% and the Systolic blood pressure [3, 7] was 187 mm Hg. The Systolic blood pressure [3, 8] was 183 mm Hg, the Systolic blood pressure [3, 9] was 177 mm Hg and the Systolic blood pressure [3, 10] was 169 mm Hg. The Systolic blood pressure [3, 11] was 160 mm Hg, the Systolic blood pressure [3, 12] was 152 mm Hg and the LD50 at 24 h [4] was > 600 mg/kg. For the same compound, the “Shortening of arrhythmia duration” value [5] was 32 % of control.
In the case of `CC(C)C[C@H]1C(=O)N2CCC[C@H]2[C@]2(O)O[C@](NC(=O)[C@@H]3C=C4c5cccc6[nH]cc(c56)C[C@H]4N(C)C3)(C(C)C)C(=O)N12` [ergocryptine methanesulfonate, reference compound], the LD50 at 24 h [4] was 188 mg/kg.
With `CC(C)C[C@H]1C(=O)N2CCC[C@H]2[C@]2(O)O[C@](NC(=O)[C@H]3C=C4c5cccc6[nH]cc(c56)C[C@H]4N(C)C3)(C(C)C)C(=O)N12` [ergocryptinine methanesulfonate, Ergocryptinine methanesulfonate] the “The increase of pupil widening” value ([1]; after 15 min.) was 117.4%, the “The increase of pupil widening” value ([1]; after 30 min.) was 91.6% and the “The increase of pupil widening” value ([1]; after 60 min.) was 32.2%. It also gave an activation at 0.04 µg/g ([2]; Cavia porcellus, dose 0.04 mcg/g of heart, read-out: (+)inotropic (maximum)) of 111%, an inhibition at 0.04 µg/g ([2]; Cavia porcellus, dose 0.04 mcg/g of heart, read-out: (-)chronotropic (maximum)) of 21% and a Systolic blood pressure [3, 7] of 189 mm Hg. The Systolic blood pressure [3, 8] was 181 mm Hg, the Systolic blood pressure [3, 9] was 176 mm Hg and the Systolic blood pressure [3, 10] was 168 mm Hg. For the same compound, the Systolic blood pressure [3, 11] was 161 mm Hg, the Systolic blood pressure [3, 12] was 160 mm Hg and the LD50 at 24 h [4] was > 520 mg/kg. The “Shortening of arrhythmia duration” value [5] was 63 % of control.
In the case of `CC(C)C[C@H]1C(=O)N2CCC[C@H]2[C@]2(O)O[C@](NC(=O)[C@H]3C=C4c5cccc6[nH]cc(c56)C[C@H]4N(C)C3)(C(C)C)C(=O)N12` [ergocryptinine], the “mydriatic effect (in words)” value [1] was “strongest mydriatic effect”, the “effect on isolated heart (in words)” value ([2]; isolated heart of guinea pig) was “qualitatively similar to that of ergotamine, ergosine and dihydroergotamine” and the “effect on the strength of heart contraction (in words)” value ([2]; isolated heart of guinea pig) was “quantitatively greater effect on the strength of heart contraction”. For the same compound, the “duration of long-duration hypertension” value [6] was “more than 60 minutes” and the vasoconstrictory effect [6] was “vasoconstrictory effect”.
In the case of `CC(C)C[C@H]1C(=O)N2CCC[C@H]2[C@]2(O)O[C@@](C)(NC(=O)[C@@H]3C=C4c5cccc6[nH]cc(c56)C[C@H]4N(C)C3)C(=O)N12` [ergosine methanesulfonate, reference compound], the “The increase of pupil widening” value ([1]; after 15 min.) was 115.6%, the “The increase of pupil widening” value ([1]; after 30 min.) was 110.5% and the “The increase of pupil widening” value ([1]; after 60 min.) was 39.7%. It also gave an activation at 0.57 µg/g ([2]; Cavia porcellus, dose 0.57 mcg/g of heart, read-out: (+)inotropic (maximum)) of 49%, an inhibition at 0.57 µg/g ([2]; Cavia porcellus, dose 0.57 mcg/g of heart, read-out: (-)chronotropic (maximum)) of 17% and a Systolic blood pressure [3, 7] of 188 mm Hg. For the same compound, the Systolic blood pressure [3, 8] was 183 mm Hg, the Systolic blood pressure [3, 9] was 178 mm Hg and the Systolic blood pressure [3, 10] was 176 mm Hg. The Systolic blood pressure [3, 11] was 175 mm Hg, the Systolic blood pressure [3, 12] was 177 mm Hg and the LD50 at 24 h [4] was 206 mg/kg. For the same compound, the “Shortening of arrhythmia duration” value [5] was 84 % of control.
With `CC(C)C[C@H]1C(=O)N2CCC[C@H]2[C@]2(O)O[C@@](C)(NC(=O)[C@H]3C=C4c5cccc6[nH]cc(c56)C[C@H]4N(C)C3)C(=O)N12` [ergosinine methanesulfonate, Ergosinine methanesulfonate] the “The increase of pupil widening” value ([1]; after 15 min.) was 135.0%, the “The increase of pupil widening” value ([1]; after 30 min.) was 122.5% and the “The increase of pupil widening” value ([1]; after 60 min.) was 32.5%. The activation at 0.65 µg/g ([2]; Cavia porcellus, dose 0.65 mcg/g of heart, read-out: (+)inotropic (maximum)) was 103%, the inhibition at 0.65 µg/g ([2]; Cavia porcellus, dose 0.65 mcg/g of heart, read-out: (-)chronotropic (maximum)) was 23% and the Systolic blood pressure [3, 7] was 180 mm Hg. For the same compound, the Systolic blood pressure [3, 8] was 169 mm Hg, the Systolic blood pressure [3, 9] was 152 mm Hg and the Systolic blood pressure [3, 10] was 140 mm Hg. For the same compound, the Systolic blood pressure [3, 11] was 141 mm Hg, the Systolic blood pressure [3, 12] was 138 mm Hg and the LD50 at 24 h [4] was 245 mg/kg. The “Shortening of arrhythmia duration” value [5] was 79 % of control.
In the case of `CN1C[C@H](C(=O)N[C@]2(C)O[C@@]3(O)[C@@H]4CCCN4C(=O)[C@H](Cc4ccccc4)N3C2=O)C=C2c3cccc4[nH]cc(c34)C[C@H]21` [ergotamine tartrate, reference compound], the “The increase of pupil widening” value ([1]; after 15 min.) was 73.3%, the “The increase of pupil widening” value ([1]; after 30 min.) was 22.8% and the “The increase of pupil widening” value ([1]; after 60 min.) was 4.6%. The activation at 0.65 µg/g ([2]; Cavia porcellus, read-out: (+)inotropic (maximum)) was 75%, the inhibition at 0.65 µg/g ([2]; Cavia porcellus, read-out: (-)chronotropic (maximum)) was 30% and the Systolic blood pressure [3, 7] was 179 mm Hg. For the same compound, the Systolic blood pressure [3, 8] was 174 mm Hg, the Systolic blood pressure [3, 9] was 170 mm Hg and the Systolic blood pressure [3, 10] was 172 mm Hg. The Systolic blood pressure [3, 11] was 173 mm Hg, the Systolic blood pressure [3, 12] was 172 mm Hg and the LD50 at 24 h [4] was 412 mg/kg. For the same compound, the “Shortening of arrhythmia duration” value [5] was 63 % of control.
With `CN1C[C@@H](C(=O)N[C@]2(C)O[C@@]3(O)[C@@H]4CCCN4C(=O)[C@H](Cc4ccccc4)N3C2=O)C=C2c3cccc4[nH]cc(c34)C[C@H]21` [ergotaminine methanesulfonate, Ergotaminine methanesulfonate] the “The increase of pupil widening” value ([1]; after 15 min.) was 66.3%, the “The increase of pupil widening” value ([1]; after 30 min.) was 69.8% and the “The increase of pupil widening” value ([1]; after 60 min.) was 30.3%. For the same compound, the activation at 5.59 µg/g ([2]; Cavia porcellus, dose 5.59 mcg/g of heart, read-out: (+)inotropic (maximum)) was 32%, the inhibition at 5.59 µg/g ([2]; Cavia porcellus, dose 5.59 mcg/g of heart, read-out: (-)chronotropic (maximum)) was 20% and the Systolic blood pressure [3, 7] was 189 mm Hg. For the same compound, the Systolic blood pressure [3, 8] was 162 mm Hg, the Systolic blood pressure [3, 9] was 143 mm Hg and the Systolic blood pressure [3, 10] was 131 mm Hg. For the same compound, the Systolic blood pressure [3, 11] was 144 mm Hg, the Systolic blood pressure [3, 12] was 150 mm Hg and the LD50 at 24 h [4] was > 300 mg/kg. The “Shortening of arrhythmia duration” value [5] was 28 % of control.
